Assay results published in PMC12418703, “Avenanthramides and avenacosides as biomarkers of oat intake: a pharmacokinetic study of solid and liquid oat consumption under single and repeated dose conditions” (Nutrition Journal, 2025).
Like-named read-outs stand apart in the source and are kept apart here.

Assays:
[1] = Plasma pharmacokinetics after a single dose of liquid or solid oat product (compartmental PK model); format: in vivo, humans; design: V/F: unit not given here; conditions: for Cmax / half-life / k el / Tmax: both sexes, oral; for Cmax / half-life / k el: human, plasma; for Cmax / half-life / k el / Tmax / T1/2 / ka / V/F / AUC(norm): single dose; for k el: elimination rate (Table 2), read-out: ke (converted); for Tmax: human plasma, derived from PK model; for V, population estimate (RSE%) / ka, population estimate (RSE%) / ke, population estimate (RSE%): Table S1 compartmental model; for ka: absorption rate (Table 2); for V/F: distribution volume over bioavailability; for AUC(norm): normalized for nmol intake
Excerpt: A non-blinded, randomized two-way crossover study with two different oat products (solid or liquid) was designed to investigate the AVA and AVE PK after a single dose and after repeated dosing at three different doses, for respective food (Fig. 2). Since this is the first study of its kind, it is impossible to make any formal calculation of the number of subjects needed to show meaningful differences in plasma biomarker concentrations, since the variation is unknown. However, similar studies aimed for BFI discovery and validation of dose-response have typically used 5–30 subjects. We therefore considered 23 individuals as a good compromise between feasibility and possibilities to assess variation in biomarker concentrations, estimate pharmacokinetic parameters, dose response and performing modelling with good precision. A scientist not involved in the study, conducted the randomization using the RAR method (RandomizeR package) in R software environment and provided lists with allocated treatment sequences. The study was conducted in two phases. In the first phase, blood samples were drawn from 11 men and 12 women for 24 h after consumption of a single dose of either a solid or a liquid oat product on-site. Breakfast and lunch were also provided on-site. A single dose of solid (62 g of oat flakes) or liquid (196 mL of oat drink) containing individual AVAs and AVEs shown in Table 1 were consumed, respectively. Blood plasma samples were drawn for 24 h (0 h, 0.25 h, 0.5 h, 0.75 h, 1 h, 1.5 h, 2 h, 3 h, 4 h, 5 h, 6 h, 7 h, 8 h, 24 h). After the 24 h, at the second phase of the study, the corresponding product was further consumed three times per day for four days at either a low, medium, or high intake dose (98, 196 and 392 mL for liquid oats and 31, 62 and 123 g for oat flakes with corresponding contents of AVAs and AVEs (Table 1) in a Latin square design. Therefore, a total number of 8 participants (2 males and 6 females) were randomized to the low dose, 9 participants (3 males and 6 females) for medium dose and 6 participants (3males and 3 females) for the high dose. Participants consumed the provided products at home and were instructed to follow their habitual diets with restriction on the consumption of oat products. A list of relevant foods was provided as a guide. The oat flakes were pre-portioned into individual bags and could be consumed without heating, mixed with yoghurt, cottage cheese, sour milk or any liquid. Participants were instructed to consume the full amount, including the liquid or food the oats were mixed with. Liquid oat products were weighed prior consumption, and they were to be consumed without any additional food. In all cases the time of oat intake was recorded in a food journal. On the fifth day of phase II, a fasting sample was drawn. Fecal samples were collected at baseline and at the end of phase II of the intervention. Between each study period, there was a wash-out period of eight days where participants consumed their habitual diet. After the washout, participants started with a single dose and repeated dosing for the other product in the same way as for the first. The participants were instructed to avoid foods containing oats during the last three days prior to the start of the study and during the last three days of the wash-out period. Compliance was assessed based on information provided in a compliance journal during the study weeks as well as through 2-day food records. The oat products used in the study were provided to the participants. The flakes for the single dose were consumed with water ad lib and for the repeated dose they could be mixed with water, yoghurt, milk, sour milk or cottage cheese with the condition that all the amount of the oat product is consumed. The oat drink was consumed without any other product.
All blood samples were collected into EDTA-coated tubes by a trained nurse. […]

[2] = system: Feacalibacterium prausnitzii; test: Association of F. prausnitzii relative abundance at baseline with Cmax and AUC strata (logistic regression); design: species or system humans; conditions: liquid, solid, or combined; single dose phase I
Description: DNA was extracted from approximately 35 mg of each of the 451 fecal samples using the NucleoSpin Soil kit (Macherey-Nagel, 740780.250 M), following the manufacturer’s instructions. DNA yield was quantified using the Qubit 1X dsDNA Broad Range assay kit (Thermo Fisher Scientific, Q33266). For metagenomic shotgun sequencing, libraries were prepared with the MGIEasy Fast FS DNA Library Prep Set (MGI Tech Co., Ltd., 940-000030-00, Werheim, Germany), using 400 ng of DNA per sample. The library preparation process included DNA shearing for 12.5 min, followed by end repair, A-tailing, and magnetic bead-based cleanup. Adapter ligation and cleanup were then performed, followed by PCR amplification and magnetic bead-based size selection of the final library product. Library quality was assessed using the Qubit 1X dsDNA HS Assay Kit (Thermo Fisher Scientific, Q33231) and the Agilent High Sensitivity D1000 Assay Kit (Agilent Technologies, 5067–5584 and 5067–5585, Santa Clara, CA, USA). Pooled libraries were circularized, barcoded, and used as templates for DNA nanoball preparation. The nanoballs were then analyzed on the DNBSEQ-T7 platform (MGI Tech Co., Ltd.) using the DNBSEQ-T7RS High-throughput Sequencing Set (FCL PE150), according to the manufacturer’s guidelines.
Raw metagenomic reads underwent quality control to remove low-quality sequences, adapters, and contaminants using Fastp (version 0.23.2, default parameters). High-quality reads were filtered to exclude human reads (GRCh38_noalt_as) using Bowtie2 [38] (version 2.5.3). The quality-filtered reads were then aligned to the taxonomy database using MetaPhlAn (version 4.0.6, default parameters) to generate relative abundance profiles. For inclusion in the analysis, a species was required to be present in at least three samples.
For the seven metabolites AVE A, AVE B, AVA 2c, AVA 2f, AVA 2fd, AVA 2p, AVA 2pd analysed at phase I after the single dose of oat products, Cmax and area under the curve (AUC) were stratified based on less than the median or more or equal to the […]. Thereafter, for each metabolite, it was investigated whether the relative abundance of F. prausnitzii at baseline could predict the strata since this bacterium has previously been reported to be responsible for production of their dihydro-metabolites. Logistic regression with a binomial distribution and a logistic link function was used to separately analyze the liquid and solid products. When analyzing liquid and solid products together, a generalized linear mixed model with a binomial distribution and a logistic link function was used, with identity included as a random factor.

[3] = 62 g of oat flakes, solid oat product (62 g oat flakes)
[4] = 196 mL of oat drink, liquid oat product (196 mL oat drink)

Compound `O=C(/C=C/C=C/c1ccc(O)cc1)Nc1ccc(O)cc1C(=O)O` [AVA 2pd] has a Cmax ([1]; 62 g of oat flakes, solid) of 16.8 ± 1.78 nM, a half-life ([1]; 62 g of oat flakes, solid) of 2.63 ± 0.2 h and a k el ([1]; 62 g of oat flakes, solid) of 7.22e-05 s⁻¹. The Cmax ([1]; 196 mL of oat drink, liquid) was 3.1 ± 0.31 nM, the half-life ([1]; 196 mL of oat drink, liquid) was 2.5 h and the k el ([1]; 196 mL of oat drink, liquid) was 7.78e-05 s⁻¹. The Tmax [1, 3] was 2.31 ± 0.1 h, the Tmax [1, 4] was 1.6 ± 0.07 h and the “V, population estimate (RSE%)” value ([1]; liquid) was 130 (16) L. For the same compound, the “ka, population estimate (RSE%)” value ([1]; liquid) was 2.4 (9) 1/h, the “ke, population estimate (RSE%)” value ([1]; liquid) was 0.30 (13) 1/h and the T1/2 ([1]; liquid) was 2.45 ± 0.19 h. For the same compound, the ka ([1]; liquid) was 2.40 ± 0.1^1 1/h, the V/F ([1]; liquid) was 131 ± 13^2 and the “V, population estimate (RSE%)” value ([1]; solid) was 190 (22) L. For the same compound, the “ka, population estimate (RSE%)” value ([1]; solid) was 1.5 (10) 1/h, the “ke, population estimate (RSE%)” value ([1]; solid) was 0.27 (17) 1/h and the ka ([1]; solid) was 1.48 ± 0.10 h⁻¹. The V/F ([1]; solid) was 189 ± 19 and the “association between F. prausnitzii abundance at baseline and Cmax and AUC” value [2] was “no significant associations”.
Work on `CC1OC(OC2C(OC3CCC4(C)C(=CCC5C4CCC4(C)C5CC5OC6(CCC(C)(COC7OC(CO)C(O)C(O)C7O)O6)C(C)C54)C3)OC(CO)C(OC3OC(CO)C(O)C(O)C3O)C2O)C(O)C(O)C1O` (centres unmarked) [AVE A, Avenacoside A] yielded a Cmax ([1]; 62 g of oat flakes, solid) of 2.03 ± 0.22 nM, a half-life ([1]; 62 g of oat flakes, solid) of 3.32 ± 0.26 h and a k el ([1]; 62 g of oat flakes, solid) of 5.83e-05 s⁻¹. For the same compound, the Cmax ([1]; 196 mL of oat drink, liquid) was 1.31 ± 0.14 nM, the half-life ([1]; 196 mL of oat drink, liquid) was 3.2 h and the k el ([1]; 196 mL of oat drink, liquid) was 6.39e-05 s⁻¹. For the same compound, the Tmax [1, 3] was 1.78 ± 0.08 h, the Tmax [1, 4] was 2.51 ± 0.11 h and the “V, population estimate (RSE%)” value ([1]; liquid) was 5900 (3) L. For the same compound, the “ka, population estimate (RSE%)” value ([1]; liquid) was 1.4 (3) 1/h, the “ke, population estimate (RSE%)” value ([1]; liquid) was 0.21 (10) 1/h and the T1/2 ([1]; liquid) was 3.17 ± 0.24 h. For the same compound, the ka ([1]; liquid) was 1.4 ± 0.1^1 1/h, the V/F ([1]; liquid) was 6718 ± 686^2 and the “V, population estimate (RSE%)” value ([1]; solid) was 9700 (2) L. For the same compound, the “ka, population estimate (RSE%)” value ([1]; solid) was 2.7 (8) 1/h, the “ke, population estimate (RSE%)” value ([1]; solid) was 0.22 (6) 1/h and the ka ([1]; solid) was 2.3 ± 0.13 h⁻¹. The V/F ([1]; solid) was 11,055 ± 1130.
`COc1cc(/C=C/C=C/C(=O)Nc2ccc(O)cc2C(=O)O)ccc1O` [AVA 2fd] gave a Cmax ([1]; 62 g of oat flakes, solid) of 7.34 ± 0.78 nM, a half-life ([1]; 62 g of oat flakes, solid) of 1.65 ± 0.13 h and a k el ([1]; 62 g of oat flakes, solid) of 0.000117 s⁻¹. The Cmax ([1]; 196 mL of oat drink, liquid) was 2.46 ± 0.25 nM, the half-life ([1]; 196 mL of oat drink, liquid) was 1.3 h and the k el ([1]; 196 mL of oat drink, liquid) was 0.000144 s⁻¹. For the same compound, the Tmax [1, 3] was 1.53 ± 0.07 h, the Tmax [1, 4] was 1.01 ± 0.04 h and the “V, population estimate (RSE%)” value ([1]; liquid) was 210 (13) L. The “ka, population estimate (RSE%)” value ([1]; liquid) was 3.6 (10) 1/h, the “ke, population estimate (RSE%)” value ([1]; liquid) was 0.52 (14) 1/h and the T1/2 ([1]; liquid) was 1.33 ± 0.10 h. For the same compound, the ka ([1]; liquid) was 3.6 ± 0.2^1 1/h, the V/F ([1]; liquid) was 211 ± 21^2 and the “V, population estimate (RSE%)” value ([1]; solid) was 320 (22) L. The “ka, population estimate (RSE%)” value ([1]; solid) was 2.2 (10) 1/h, the “ke, population estimate (RSE%)” value ([1]; solid) was 0.42 (17) 1/h and the ka ([1]; solid) was 2.2 ± 0.12 h⁻¹. The V/F ([1]; solid) was 314 ± 32 and the “association between F. prausnitzii abundance at baseline and Cmax and AUC” value [2] was “no significant associations”.
For `CC1OC(OC2C(OC3CCC4(C)C(=CCC5C4CCC4(C)C5CC5OC6(CCC(C)(COC7OC(CO)C(O)C(O)C7O)O6)C(C)C54)C3)OC(CO)C(OC3OC(CO)C(O)C(OC4OC(CO)C(O)C(O)C4O)C3O)C2O)C(O)C(O)C1O` (centres unmarked) [AVE B, Avenacoside B], the Cmax ([1]; 62 g of oat flakes, solid) was 0.64 ± 0.07 nM, the half-life ([1]; 62 g of oat flakes, solid) was 3.76 ± 0.29 h and the k el ([1]; 62 g of oat flakes, solid) was 5e-05 s⁻¹. It also gave a Cmax ([1]; 196 mL of oat drink, liquid) of 0.44 ± 0.05 nM, a half-life ([1]; 196 mL of oat drink, liquid) of 2.5 h and a k el ([1]; 196 mL of oat drink, liquid) of 7.5e-05 s⁻¹. The Tmax [1, 3] was 3.29 ± 0.14 h, the Tmax [1, 4] was 2.98 ± 0.13 h and the “V, population estimate (RSE%)” value ([1]; liquid) was 2200 (3) L. For the same compound, the “ka, population estimate (RSE%)” value ([1]; liquid) was 0.41 (9) 1/h, the “ke, population estimate (RSE%)” value ([1]; liquid) was 0.27 (3) 1/h and the T1/2 ([1]; liquid) was 2.56 ± 0.20^2 h. The ka ([1]; liquid) was 0.41 ± 0.02 h⁻¹, the V/F ([1]; liquid) was 2079 ± 212 and the “AUC(norm)” value ([1]; liquid) was 1.8 ± 0.2 nM·h. For the same compound, the “V, population estimate (RSE%)” value ([1]; solid) was 2600 (21) L, the “ka, population estimate (RSE%)” value ([1]; solid) was 0.45 (22) 1/h and the “ke, population estimate (RSE%)” value ([1]; solid) was 0.19 (20) 1/h. The ka ([1]; solid) was 0.46 ± 0.03 h⁻¹, the V/F ([1]; solid) was 2606 ± 266 and the “AUC(norm)” value ([1]; solid) was 2.1 ± 0.3 nM·h.
